# According to PubChem BioAssay (NCI):
#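 All cell lines were grown in 96-well plates and treated with compound for 48 hours. The concentration for 50% growth inhibition is given as GI50. TGI marks complete inhibition of growth.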
# Columns and labels:
# Assay in all cases: growth of human tumour cells (NCI), 48 h
# HCT-15 colon = test system: HCT-15 colon
# NCI/ADR-RES ovarian = test system: NCI/ADR-RES ovarian
# CCRF-CEM leukemia = test system: CCRF-CEM leukemia
# LOX IMVI melanoma = test system: LOX IMVI melanoma
# SF-295 CNS = test system: SF-295 CNS
# SF-268 CNS = test system: SF-268 CNS
# SF-539 CNS = test system: SF-539 CNS
# SK-OV-3 ovarian = test system: SK-OV-3 ovarian
# MCF7 breast = test system: MCF7 breast
# OVCAR-3 ovarian = test system: OVCAR-3 ovarian
# HCT-116 colon = test system: HCT-116 colon
# SNB-75 CNS = test system: SNB-75 CNS
# T-47D breast = test system: T-47D breast
# EKVX NSCLC = test system: EKVX NSCLC
# HT29 colon = test system: HT29 colon
# UACC-62 melanoma = test system: UACC-62 melanoma
# OVCAR-5 ovarian = test system: OVCAR-5 ovarian
# SK-MEL-28 melanoma = test system: SK-MEL-28 melanoma
# M14 melanoma = test system: M14 melanoma
# CAKI-1 renal = test system: CAKI-1 renal
# OVCAR-4 ovarian = test system: OVCAR-4 ovarian
# HCC-2998 colon = test system: HCC-2998 colon
# SNB-19 CNS = test system: SNB-19 CNS
# A498 renal = test system: A498 renal
# NCI-H460 lung = test system: NCI-H460 lung
# SK-MEL-2 melanoma = test system: SK-MEL-2 melanoma
# HOP-62 NSCLC = test system: HOP-62 NSCLC
# MDA-MB-231 breast = test system: MDA-MB-231 breast
# RPMI-8226 leukemia = test system: RPMI-8226 leukemia
# UO-31 renal = test system: UO-31 renal
# 786-0 renal = test system: 786-0 renal
# MDA-MB-435 = test system: MDA-MB-435
# OVCAR-8 ovarian = test system: OVCAR-8 ovarian
# KM12 colon = test system: KM12 colon
# A549 NSCLC = test system: A549 NSCLC
# SW-620 colon = test system: SW-620 colon
# UACC-257 melanoma = test system: UACC-257 melanoma
# U251 CNS = test system: U251 CNS
# SN12C renal = test system: SN12C renal
# NCI-H226 lung = test system: NCI-H226 lung
# IGROV1 ovarian = test system: IGROV1 ovarian
# RXF 393 renal = test system: RXF 393 renal
# HOP-92 NSCLC = test system: HOP-92 NSCLC
# ACHN renal = test system: ACHN renal
# BT-549 breast = test system: BT-549 breast
# NCI-H522 lung = test system: NCI-H522 lung
# HS 578T breast = test system: HS 578T breast
# SK-MEL-5 melanoma = test system: SK-MEL-5 melanoma
# MALME-3M melanoma = test system: MALME-3M melanoma
# DU-145 prostate = test system: DU-145 prostate
# COLO 205 colon = test system: COLO 205 colon
# TK-10 renal = test system: TK-10 renal
# PC-3 prostate = test system: PC-3 prostate
smiles,measurement,setting,value
COc1cc2nc(-c3ccc(C(F)(F)F)cc3)cc(OCCCNCC3CCCO3)c2cc1OC (stereo unspecified),GI50,HCT-15 colon,3.1 µM
same,TGI,HCT-15 colon,12.3 µM
same,GI50,NCI/ADR-RES ovarian,6.92 µM
same,TGI,NCI/ADR-RES ovarian,24.5 µM
same,GI50,CCRF-CEM leukemia,6.61 µM
same,TGI,CCRF-CEM leukemia,24.4 µM
same,GI50,LOX IMVI melanoma,1.61 µM
same,TGI,LOX IMVI melanoma,4.33 µM
same,GI50,SF-295 CNS,8.68 µM
same,TGI,SF-295 CNS,22 µM
same,GI50,SF-268 CNS,10.4 µM
same,TGI,SF-268 CNS,25 µM
same,GI50,SF-539 CNS,11.2 µM
same,TGI,SF-539 CNS,24 µM
same,GI50,SK-OV-3 ovarian,12.4 µM
same,TGI,SK-OV-3 ovarian,25.8 µM
same,GI50,MCF7 breast,3.23 µM
same,TGI,MCF7 breast,15.9 µM
same,GI50,OVCAR-3 ovarian,12.3 µM
same,TGI,OVCAR-3 ovarian,27.5 µM
same,GI50,HCT-116 colon,3.45 µM
same,TGI,HCT-116 colon,14.8 µM
same,GI50,SNB-75 CNS,8.45 µM
same,TGI,SNB-75 CNS,21.9 µM
same,GI50,T-47D breast,4.06 µM
same,TGI,T-47D breast,19 µM
same,GI50,EKVX NSCLC,4.22 µM
same,TGI,EKVX NSCLC,18.6 µM
same,GI50,HT29 colon,2.98 µM
same,TGI,HT29 colon,11.2 µM
same,GI50,UACC-62 melanoma,3.54 µM
same,TGI,UACC-62 melanoma,14.5 µM
same,GI50,OVCAR-5 ovarian,4.09 µM
same,TGI,OVCAR-5 ovarian,17.5 µM
same,GI50,SK-MEL-28 melanoma,5.77 µM
same,TGI,SK-MEL-28 melanoma,19.3 µM
same,GI50,M14 melanoma,3.09 µM
same,TGI,M14 melanoma,12.4 µM
same,GI50,CAKI-1 renal,1.74 µM
same,TGI,CAKI-1 renal,5.32 µM
same,GI50,OVCAR-4 ovarian,9.01 µM
same,TGI,OVCAR-4 ovarian,21.5 µM
same,GI50,HCC-2998 colon,10.3 µM
same,TGI,HCC-2998 colon,23.6 µM
same,GI50,SNB-19 CNS,13.3 µM
same,TGI,SNB-19 CNS,28.4 µM
same,GI50,A498 renal,20.6 µM
same,TGI,A498 renal,37 µM
same,GI50,NCI-H460 lung,3.89 µM
same,TGI,NCI-H460 lung,15.8 µM
same,GI50,SK-MEL-2 melanoma,13.7 µM
same,TGI,SK-MEL-2 melanoma,26.9 µM
same,GI50,HOP-62 NSCLC,6.01 µM
same,TGI,HOP-62 NSCLC,21.4 µM
same,GI50,MDA-MB-231 breast,3.79 µM
same,TGI,MDA-MB-231 breast,17 µM
same,GI50,RPMI-8226 leukemia,2.39 µM
same,TGI,RPMI-8226 leukemia,12.2 µM
same,GI50,UO-31 renal,2.53 µM
same,TGI,UO-31 renal,15.6 µM
same,GI50,786-0 renal,6.44 µM
same,TGI,786-0 renal,21.1 µM
same,GI50,MDA-MB-435,3.13 µM
same,TGI,MDA-MB-435,11.7 µM
same,GI50,OVCAR-8 ovarian,3.72 µM
same,TGI,OVCAR-8 ovarian,16.6 µM
same,GI50,KM12 colon,5.49 µM
same,TGI,KM12 colon,20.5 µM
same,GI50,A549 NSCLC,4.43 µM
same,TGI,A549 NSCLC,21.2 µM
same,GI50,SW-620 colon,8.16 µM
same,TGI,SW-620 colon,22 µM
same,GI50,UACC-257 melanoma,2.01 µM
same,TGI,UACC-257 melanoma,4.79 µM
same,GI50,U251 CNS,7.37 µM
same,TGI,U251 CNS,26.5 µM
same,GI50,SN12C renal,4.63 µM
same,TGI,SN12C renal,18.4 µM
same,GI50,NCI-H226 lung,2.51 µM
same,TGI,NCI-H226 lung,8.6 µM
same,GI50,IGROV1 ovarian,4.41 µM
same,TGI,IGROV1 ovarian,18.8 µM
same,GI50,RXF 393 renal,1.38 µM
same,TGI,RXF 393 renal,5.23 µM
same,GI50,HOP-92 NSCLC,1.57 µM
same,TGI,HOP-92 NSCLC,7.85 µM
same,GI50,ACHN renal,4.89 µM
same,TGI,ACHN renal,18.2 µM
same,GI50,BT-549 breast,6.92 µM
same,TGI,BT-549 breast,21.1 µM
same,GI50,NCI-H522 lung,3.05 µM
same,TGI,NCI-H522 lung,13.8 µM
same,GI50,HS 578T breast,10.4 µM
same,TGI,HS 578T breast,25.8 µM
same,GI50,SK-MEL-5 melanoma,11.7 µM
same,TGI,SK-MEL-5 melanoma,24.7 µM
same,GI50,MALME-3M melanoma,3.17 µM
same,TGI,MALME-3M melanoma,13.8 µM
same,GI50,DU-145 prostate,9.03 µM
same,TGI,DU-145 prostate,21.7 µM
same,GI50,COLO 205 colon,3.09 µM
same,TGI,COLO 205 colon,17.7 µM
same,GI50,TK-10 renal,12.2 µM
same,TGI,TK-10 renal,25.3 µM
same,GI50,PC-3 prostate,3.8 µM
same,TGI,PC-3 prostate,17.2 µM
